Series [1] deals with T1, Cdk5 (Mus musculus, UniProt P49615).
T1 construct: from tissue; host or cells: striatum of wild-type C57BL/6 mice (acute slices, or lysates after I.V. dosing)
The experiment in a line: Ex vivo acute striatal brain slice pharmacology, immunoblot of phospho-Thr75 DARPP-32 and phospho-Ser1116 NR2B. It counts as cell-based. The conditions noted are these: acute striatal slices, 1 h treatment, 0-10 µM; read-out: IC50, Cdk5-dependent phosphorylation of DARPP-32 and NR2B. On the procedure: Brain slice pharmacology was performed as described ([Nishi et al., 2000]). Briefly, the mice were decapitated, and the brains were rapidly dissected and submerged in ice-cold normal Kreb’s solution (124 mM NaCl, 4 mM KCl, 26 mM NaHCO3, 1.25 mM KH2PO4, 1.5 mM MgSO4, 10 mM D-glucose, and 1.5 mM CaCl2). The brains were subsequently sectioned into normal Kreb’s solution at 350 µ thickness. The brain slices were transferred to a 30°C solution of normal Kreb’s containing 10 µM deaminase for a 1-h recovery period. The sections were then incubated in normal Kreb’s solution with and without the indicated compounds across the dose and time ranges indicated. The sections were rapidly snap-frozen in dry ice to terminate treatment regimes.
(§1) Immunoblotting was performed as previously described ([Umfress et al., 2021]). Mouse brains were rapidly dissected in an ice-cold solution of 50 mM NaF/PBS. The regions of interest were further dissected out and rapidly snap-frozen in dry ice. The frozen tissue was homogenized in boiling lysis buffer (1% SDS, 50 mM NaF) and sonicated with several three to four pulses at 40 dB. The samples were subsequently denatured at 90°C for 5 min. Protein concentration was determined by the BCA assay, and homogenates were diluted in 4x sample buffer, separated by SDS-PAGE, and transferred to 0.45-µm nitrocellulose membranes, blocked with 5% milk solution (1 h), and probed with primary antibodies (overnight). The following antibodies were used in the study: phospho-Ser549 synapsin I (Phosphosolutions), total synapsin I (Phosphosolutions), actin (Invitrogen), phospho-Ser1116 (in-house) ([Plattner et al., 2014]), and total NR2B (Phosphosolutions), phospho-Thr75, and total DARPP-32 (Cell Signaling Technology). Visualization was performed using the Licor CLX membrane scanner and Licor secondary antibodies.
In order to assess the functional inhibition of Cdk5 in intact brain tissue by the four compounds summarized in Figure 1, acutely prepared striatal slices were treated in a dose-dependent manner (0, 0.25, 0.5, 1, 5, and 10 µM) with each inhibitor for 1 h, and Cdk5 activity was assessed via immunoblotting the phosphorylation of established Cdk5 sites, phospho-Thr75 DARPP-32 and phospho-Ser1116 NR2B ([Bibb et al., 1999]; [Plattner et al., 2014]).
For orientation: Immunoblotting shows a protein as a band on a membrane.

In series [2] the target is T1, Cdk5. The experiment in a line: In vivo Cdk5 inhibition after I.V. injection, immunoblot of striatal phospho-Ser549 synapsin I. The following applies: 50 mg/kg I.V., striatal lysates, various time points, data not shown. How it is done: The wild-type group housed male C57BL/6 mice 10–12 weeks of age were used for all in vivo, ex vivo, and behavioral studies. This age range was selected to be consistent with previous studies of conditional Cdk5 knockout mice ([Plattner et al., 2015]). 25–106 was administered in a 20-fold dose range intravenously (I.V.) at 10, 50, 100, and 200 mg/kg for pharmacokinetic studies. This delivery mode was used as I.V. injections to avoid first-pass drug metabolism observed using other injection methods ([Pond and Tozer, 1984]). […] All animal experiments were performed under approved protocols by the University of Alabama at Birmingham (UAB) Institutional Animal Care and Use Committees and in accordance with the guidelines of the Animal Welfare Act and the Guide for the Care and Use of Laboratory Animals.
as §1
Each of the four compounds tested in brain slices was further screened for their ability to penetrate the blood–brain barrier (BBB) and inhibit Cdk5-dependent activity in vivo. For these studies, cohorts of mice were treated with each compound via I.V. injection (50 mg/kg), and brain striatal lysates from various time points were subjected to quantitative immunoblot analysis for phosho-Ser549 Synapsin I levels. Three compounds, 20–107, 20–132, and 20–143, had no effect on Cdk5 activity compared to that of vehicle alone (data not shown). […] Moreover, this effect persisted even 24 h after dosing.

For series [3] the following is noted: ref Vita et al., 2005; cited from earlier work.

T1 sequence (P49615 whole entry): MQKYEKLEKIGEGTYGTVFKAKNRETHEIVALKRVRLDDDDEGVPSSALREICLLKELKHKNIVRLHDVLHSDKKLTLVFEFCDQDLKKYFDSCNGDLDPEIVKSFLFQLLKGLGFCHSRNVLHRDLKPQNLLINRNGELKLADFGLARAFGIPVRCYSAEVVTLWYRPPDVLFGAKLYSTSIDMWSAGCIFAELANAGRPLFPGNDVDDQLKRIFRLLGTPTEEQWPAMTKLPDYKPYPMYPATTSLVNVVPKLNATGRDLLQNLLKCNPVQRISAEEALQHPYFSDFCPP
T1 sequence (P61809 2-307 partner limits assumed): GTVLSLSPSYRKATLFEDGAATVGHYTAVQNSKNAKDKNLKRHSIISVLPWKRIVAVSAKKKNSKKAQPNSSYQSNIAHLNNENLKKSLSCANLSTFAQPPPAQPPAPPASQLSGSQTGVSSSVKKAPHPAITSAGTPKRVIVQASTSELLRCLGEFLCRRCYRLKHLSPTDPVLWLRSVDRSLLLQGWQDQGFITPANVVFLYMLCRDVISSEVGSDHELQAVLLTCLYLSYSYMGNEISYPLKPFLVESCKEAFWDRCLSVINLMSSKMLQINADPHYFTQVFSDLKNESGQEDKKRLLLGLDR

As to `O=C(Cc1ccc2c(c1)OCCO2)Nc1cc(C2CCC2)[nH]n1` [25–107], the IC50 at Cdk5 [1] lay within 500 to 1000 nM. In addition, the “effect on Cdk5 activity (phospho-Ser549 synapsin I) compared to vehicle” value on Cdk5 [2] was “no effect”.
The corresponding values for `O=C(C/C=C/c1ccccc1)Nc1cc(C2CCC2)[nH]n1` [25–132] are 500 to 1000 nM and “no effect”.
Turning to `COc1ccc(CC(=O)Nc2cc(C3CCC3)[nH]n2)cc1OC` [25–143], on Cdk5 [1], the IC50 was in the range of 500 to 1000 nM. Moreover, at Cdk5 [2], the “effect on Cdk5 activity (phospho-Ser549 synapsin I) compared to vehicle” value is “no effect”.
In the case of `CC[C@H](CO)Nc1nc(NCc2ccccc2)c2ncn(C(C)C)c2n1` [roscovitine], in series [3], the “distribution into the brain” value is given as “could distribute into the brain”; the “half-life and active metabolites” value is on record as “rapid half-life with no detectable active metabolites”.

For orientation: IC50 means the point on the concentration scale where inhibition reaches its midpoint.

The values above are taken from paper PMC9134315, “Systemic Administration of a Brain Permeable Cdk5 Inhibitor Alters Neurobehavior” (Frontiers in Pharmacology, 2022).
